Assays:
[1] = test system: rat rectocolitis induced by trinitrobenzenesulphonic acid (TNBS); experiment: In vivo activity in a model of inflammation of experimental colitis in rats (TNBS); conditions: 3 mg/kg orally one hour before and one day after TNBS, after 3 days, significant
Method: Mizolastine was studied in a model of rat rectocolitis induced by trinitrobenzenesulphonic acid (TNBS), according to the method described by Morris et al. (Gastroenterology, 96, 795-803, 1989).
The mizolastine is given orally (3 mg/kg) one hour before and one day after the instillation of TNBS (40 mg/kg in 50% ethanol) into the distal part of the colon. After 3 days, measurement of the macroscopic index of the damage, of the oedema/hypertrophy (weight of tissues) and of the myeloperoxidase activity, as a measure of the infiltration of the neutrophils, is carried out. Mizolastine imparts a significant reduction in the damage, in the oedema/hypertrophy (weight of tissues) and in the myeloperoxidase activity of 67%, 57% and 66% respectively at 3 mg/kg.

[2] = target: T1, 5-LO obtained from a preparation of rat leukaemic basophil cells (RBL-1) (Rattus norvegicus, UniProt P12527); experiment: Inhibition of 5-LO in Rats (RBL-1 preparation); type: biochemical; conditions: rat 5-LO (RBL-1); linoleic acid; 5 min preincubation, 8 min at room temperature; absorption at 234 nm; read-out: inhibitory concentration (IC50)
T1 construct: 5-LO obtained from a preparation of rat leukaemic basophil cells (RBL-1); endogenous in cells; host or cells: RBL-1 (rat leukaemic basophil cells)
T1 sequence (P12527 1-673): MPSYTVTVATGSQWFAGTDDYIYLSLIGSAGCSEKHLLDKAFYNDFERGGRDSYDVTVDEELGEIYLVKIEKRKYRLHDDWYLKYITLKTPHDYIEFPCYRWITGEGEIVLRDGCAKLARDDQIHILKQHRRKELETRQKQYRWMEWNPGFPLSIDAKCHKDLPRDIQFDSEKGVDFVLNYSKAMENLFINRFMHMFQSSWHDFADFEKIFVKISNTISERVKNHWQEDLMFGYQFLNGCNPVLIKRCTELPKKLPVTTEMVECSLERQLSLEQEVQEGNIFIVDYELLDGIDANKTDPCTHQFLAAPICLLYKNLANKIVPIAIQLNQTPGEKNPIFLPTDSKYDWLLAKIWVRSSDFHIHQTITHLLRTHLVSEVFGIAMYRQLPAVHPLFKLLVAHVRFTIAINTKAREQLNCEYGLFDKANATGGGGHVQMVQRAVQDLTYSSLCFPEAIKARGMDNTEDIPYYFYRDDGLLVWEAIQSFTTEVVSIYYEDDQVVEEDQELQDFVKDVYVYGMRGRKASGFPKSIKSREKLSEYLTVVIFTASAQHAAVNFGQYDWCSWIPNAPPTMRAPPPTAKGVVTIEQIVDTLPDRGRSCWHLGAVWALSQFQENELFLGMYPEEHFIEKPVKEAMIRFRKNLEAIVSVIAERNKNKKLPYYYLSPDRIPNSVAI
Method: The tests were carried out according to the procedure described by R. W. Egan and P. H. Gale in J. Biol. Chem., 260, 1154-1159, 1985, with 5-LO obtained from a preparation of rat leukaemic basophil cells (RBL-1). Mizolastine is incubated with the enzyme for 5 minutes at room temperature and the reaction is initiated by addition of linoleic acid. After incubating for 8 minutes at room temperature, the reaction is stopped by addition of sodium hydroxide and the absorption is read at 234 nm in order to determine the level of 5-HETE.

[3] = target: T2, 5-LO isolated from commercial HL60 cells (Homo sapiens, UniProt P09917); experiment: Inhibition of 5-LO in Man (HL60 5-LO); type: biochemical; conditions: 5-LO from HL60 cells; arachidonic acid 0.4 μM; 10 min at room temperature; 5-HETE by RIA; read-out: inhibitory concentration (IC50)
T2 construct: 5-LO isolated from commercial HL60 cells; endogenous in cells; host or cells: HL60
T2 sequence (P09917 1-674): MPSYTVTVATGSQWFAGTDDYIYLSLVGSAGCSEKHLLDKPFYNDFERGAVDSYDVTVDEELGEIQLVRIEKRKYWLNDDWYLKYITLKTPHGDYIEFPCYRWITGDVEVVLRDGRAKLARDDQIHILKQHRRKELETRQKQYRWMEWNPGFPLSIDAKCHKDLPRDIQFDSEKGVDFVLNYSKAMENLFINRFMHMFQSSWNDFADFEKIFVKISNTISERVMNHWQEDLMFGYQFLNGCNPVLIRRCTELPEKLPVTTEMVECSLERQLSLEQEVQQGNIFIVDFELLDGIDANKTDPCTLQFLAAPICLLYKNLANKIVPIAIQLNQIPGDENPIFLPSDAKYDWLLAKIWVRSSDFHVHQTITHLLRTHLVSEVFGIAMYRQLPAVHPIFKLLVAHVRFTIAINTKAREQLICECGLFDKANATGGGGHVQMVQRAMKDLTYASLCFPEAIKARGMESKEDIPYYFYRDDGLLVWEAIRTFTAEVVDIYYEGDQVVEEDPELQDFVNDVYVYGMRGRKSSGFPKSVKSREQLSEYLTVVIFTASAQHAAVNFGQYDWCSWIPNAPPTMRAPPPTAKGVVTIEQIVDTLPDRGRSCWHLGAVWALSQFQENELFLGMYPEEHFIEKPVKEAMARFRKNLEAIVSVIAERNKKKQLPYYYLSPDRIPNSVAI
Method: Mizolastine was tested on 5-LO isolated from commercial HL60 cells. The mizolastine is incubated for 10 minutes at room temperature in the presence of arachidonic acid (0.4 μM) and 5-LO. The experiment is carried out simultaneously in the presence of nordihydrogualaretic acid as reference product. The amount of 5-HETE formed is determined by RIA (Coffrey et al., J. Biol. Chem., 267-270, 1992).

[4] = test system: inflammatory oedema of rat limbs induced by the injection of AA; experiment: In vivo activity in a model of inflammation of rat limbs (oedema by injection of AA); conditions: 0.3 mg/kg orally 2 hours before AA injection; after 4 hours; plethysmography
Method: a) inflammation by injection of AA
Inflammatory oedema of rat limbs induced by the injection of AA is produced and evaluated according to the method of Di Martino et al. (Agents and actions, 21, 303-305, 1987) except that the AA concentration used is 0.3% (v/v).
The mizolastine is given orally 2 hours before the injection of AA. An AA solution, prepared at the time of use in a buffer solution (0.1 ml; 0.2 M carbonate; pH=11.2), is injected into the subplantar part of a rat's right hind limb.
The volume of the inflammatory reaction is measured by plethysmography after 1, 2, 3 and 4 hours.

IC50 [2]: 4.6 µM
IC50 [3]: 16 µM
Structure (SMILES): CN(c1nccc(O)n1)C1CCN(c2nc3ccccc3n2Cc2ccc(F)cc2)CC1 [mizolastine, 2-[[1-[1-[(4-fluorophenyl)methyl]-1H-benzimidazol-2-yl]-4-piperidyl]methylamino]-4-pyrimidinol]
reduction in the myeloperoxidase activity ([1]; infiltration of neutrophils): 66%
reduction in the damage (macroscopic index) [1]: 67%
reduction in the oedema/hypertrophy (weight of tissues) [1]: 57%
inhibition, relative to the control, of the inflammation induced [4]: 55%
